According to patent US20110098177A1, “METHODS AND COMPOSITIONS OF PLANT MICRONUTRIENTS” (NOVUS INTERNATIONAL INC., priority 2006, published 2011):
Entries after “also recorded” stand apart in the source; their conditions may differ.

Tests used:
Format in all cases: in vivo
Tygress tomato plants [1] = assay: Foliar nutrient concentration 2 weeks after treatment, greenhouse tomato (Examples 4-6); settings: Mn 2.0 lb/acre
Method: (§1) The following experiments were performed in a green house during the fall of 2008 and spring of 2009 at GCREC, Balm, University of Florida. Crop set-up, procedures and variables were as follows.
(§2) Transplants of Tygress' tomato plants were planted in 2-gallon pots filled with commercial planting medium with nutrient concentration of Fe, Zn, Mn, Cu being negligible and insufficient for crop growth. Irrigation and non-micronutrient fertilizer were provided daily through microsprinklers at recommended rates for tomato production in Florida. No pesticides were used. Treatments were as described in Tables 4, 5 and 6 below.
(§3) Treatments were applied at 5 WAT (weeks after transplanting) using a water volume of 200 mL/plant. A non-ionic surfactant was added. Foliar tissue analysis was performed at 3 and 7 WAT on the non-applied newest leaves. The concentrations of N, P, K, Mg, Ca, B, Zn, Mn, Fe, and Cu in the foliar tissue were determined from foliar analysis by a commercial laboratory at 2 weeks before treatment and again at 2 weeks after treatment.
(§4) Deionized water was used for foliar applications, and other nutrients were applied as appropriate under non-limiting conditions. Marketable fruit were collected three times during the growing season, starting at 10 WAT (5 weeks after the initial treatment). Tomato fruit was graded as extra-large, large and medium. Non-marketable fruit were harvested and number and weight recorded but not sized.
(§5) Experimental design was a randomized complete block design with 6 replications. Data were analyzed using a general linear model, and means were separated using an LSD test at the 5% significance level.

Tygress tomato plants [2] = assay: Yields of tomato fruits, greenhouse (Examples 4-6)
Method: as §1, §2, §3, §4, §5

Tygress tomato plants [3] = assay: Foliar nutrient concentration at 6 WAT, open-field tomato (Examples 7-10); settings: 6 WAT, open field
In short: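 Open-field Florida trial, spring 2008: transplants at 4-true-leaf stage on drip-irrigated raised beds were foliar-sprayed at 3 and 5 WAT (BIOX-CM at 4 and 5 WAT) at 60 gal/acre with non-ionic surfactant. Most recent mature leaves were sampled at 6 WAT. Tomato fruit was USDA-graded and analysed for minerals.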

[4] = system: Patriot bell pepper plants; assay: Foliar nutrient concentration at 6 WAT, open-field bell pepper (Examples 7-10); settings: 6 WAT; open field; product rate as Table 17
Method: (§6) The following experiments were performed in open-field plots during the spring of 2008 at GCREC, Balm, University of Florida. Four products delivering Zn (BIOX-Z), Mn (BIOX-M), Cu (BIOX-Cu), and Fe (BIOX-Fe) were compared to other micronutrient supplement formulations in tomato and bell pepper plants.
(§7) The plot sizes for the tomato plants were 30-ft plots (15 plants per plot) and 15-ft plots were used for the bell pepper plants (30 plants per plot). Crop set-up, procedures and variables were as follows.
(§8) Transplants of ‘Tygress’ tomato plants and ‘Patriot’ bell pepper plants in the 4-true leaf stage (about 6 inches tall) were planted in raised beds in open-field plots. The cross-section of each raised bed was 28 inches wide at the top, 32 inches wide at the base, and 8 inches tall. Irrigation and non-micronutrient fertilizer were provided daily through two drip lines per bed (0.45 gal/100 ft bed/min) at recommended rates for tomato and bell pepper production in Florida. […] The height of the plants for each of the treatment groups was measured at 3 weeks after transplantation (WAT), just prior to treatment with the experimental foliar fertilizers.
(§9) All foliar fertilizers except BIOX-CM were applied to the various treatment groups at 3 weeks after transplantation (WAT) and again at 5 WAT. The BIOX-CM treatment was applied at 4 and 5 WAT. The working water volume was 60 gal/acre and a non-ionic surfactant (Ad-Spray 80) was added in the amount of 2 pints/100 gal water. All plots were sprayed with sprayers pressurized at 25 psi and the canopies of both crops were covered with the micronutrient solutions. Treated plots were isolated during foliar fertilizer application to avoid the cross-contamination of other treatments on adjoining plots.
(§10) Leaf samples were collected from the most recent mature leaves from each plant at 6 WAT (2 weeks after initial treatment). Foliar tissue analysis was performed by a commercial laboratory to determine the concentration of N, P, K, Mg, Ca, B, Zn, Mn, Fe, and Cu. Tomato marketable fruit weights were collected at 10 and 12 WAT, and the fruits were graded according to USDA standards. Pepper marketable fruit weights were determined beginning at 5 WAT over 5 weekly harvests. Fruit mineral analysis (N, P, K, Mg, Ca, B, Zn, Mn, Fe, and Cu) was performed on samples from the tomato harvest.
(§11) The experimental design was a randomized complete block design with 5 replications for each treatment. All comparison data were analyzed using a general linear model and the means of each treatment were separated with a Fisher's protected LSD test at the 5% significance level.

Tygress tomato plants [5] = assay: Marketable yield, open-field tomato (Examples 7-10); settings: open field; lb/acre/season: BIOX-Z 1.3, Cu 6.7, M 23.0, Fe 3.2, INC 4.0, INZ 0.6, CM 10.0, GZ 1.0, GF 4.0, EDZ 1.4, EDM 23.0
Method: as §6, §7, §8, §9, §10, §11

[6] = system: Patriot bell pepper plants; assay: Marketable yield, open-field bell pepper (Examples 7-10); settings: open field; lb/acre/season: BIOX-Z 1.3, Cu 6.7, M 23.0, Fe 3.2, INC 4.0, INZ 0.6, CM 10.0, GZ 1.0, GF 4.0, EDZ 1.4, EDM 23.0
Method: as §6, §7, §8, §9, §10, §11

Tygress tomato plants [7] = assay: Nutrient concentration of tomato fruits at 10 WAT, open field (Examples 7-10); settings: 10 WAT, open field
Method: as §6, §7, §8, §9, §10, §11

Substance: EDTA chelated manganese [BIOX-EDM]
- B concentration in tomato leaves (Tygress tomato plants [1]; 2 weeks after Mn treatment): 22 ppm
- Ca concentration in tomato leaves (Tygress tomato plants [1]; 2 weeks after Mn treatment): 0.6%
- Cu concentration in tomato leaves (Tygress tomato plants [1]; 2 weeks after Mn treatment): 5 ppm
- Fe concentration in tomato leaves (Tygress tomato plants [1]; 2 weeks after Mn treatment): 115 ppm
- K concentration in tomato leaves (Tygress tomato plants [1]; 2 weeks after Mn treatment): 3.3%
- Mg concentration in tomato leaves (Tygress tomato plants [1]; 2 weeks after Mn treatment): 0.3%
- N concentration in tomato leaves (Tygress tomato plants [1]; 2 weeks after Mn treatment): 3.3%
- P concentration in tomato leaves (Tygress tomato plants [1]; 2 weeks after Mn treatment): 0.5%
- Zn concentration in tomato leaves (Tygress tomato plants [1]; 2 weeks after Mn treatment): 32 ppm
- Foliar Mn concentration (Tygress tomato plants [1]; tomato leaves 2 weeks after Mn treatment): 78.5 a ppm
- Marketable tomato yield compared with non-treated control (in words) (Tygress tomato plants [2]; BIOX-M at 1.23 lb/acre or more, BIOX-EDM at 2.0 lb/acre, Mn-sulfate at 1.0 lb/acre): significantly higher than the non-treated control
- Marketable yield (Tygress tomato plants [2]; Mn 2.0 lb/acre, tomato fruits): 4.4 a lb/plant
- Foliar Zn concentration of tomato plants, statement (Tygress tomato plants [3]): significant increase
- Foliar concentration of K of tomato plants compared to control, statement (Tygress tomato plants [3]): significant increase
- Foliar concentration of Mn of tomato plants, statement (Tygress tomato plants [3]): significant increase
- Foliar concentration of P of tomato plants compared to control, statement (Tygress tomato plants [3]): significant decrease
- Foliar B concentration of tomato plants (Tygress tomato plants [3]; product rate as Table 17): 60 ppm
- Foliar Ca concentration of tomato plants (Tygress tomato plants [3]; product rate as Table 17): 2.2%
- Foliar Cu concentration of tomato plants (Tygress tomato plants [3]; product rate as Table 17): 409 ppm
- Foliar Fe concentration of tomato plants (Tygress tomato plants [3]; product rate as Table 17): 100 ppm
- Foliar K concentration of tomato plants (Tygress tomato plants [3]; product rate as Table 17): 6.2 a %
- Foliar Mg concentration of tomato plants (Tygress tomato plants [3]; product rate as Table 17): 0.82%
- Foliar Mn concentration of tomato plants (Tygress tomato plants [3]; product rate as Table 17): 348 b ppm
- Foliar N concentration of tomato plants (Tygress tomato plants [3]; product rate as Table 17): 4.9%
- Foliar P concentration of tomato plants (Tygress tomato plants [3]; product rate as Table 17): 0.22 ab %
- Foliar Zn concentration of tomato plants (Tygress tomato plants [3]; product rate as Table 17): 333 a ppm
- Foliar B concentration of bell pepper plants [4]: 64 ppm
- Foliar Ca concentration of bell pepper plants [4]: 4.4%
- Foliar Cu concentration of bell pepper plants [4]: 411 ppm
- Foliar Fe concentration of bell pepper plants [4]: 138 ppm
- Foliar K concentration of bell pepper plants [4]: 3.6%
- Foliar Mg concentration of bell pepper plants [4]: 0.52%
- Foliar Mn concentration of bell pepper plants [4]: 563 ppm
- Foliar N concentration of bell pepper plants [4]: 4.4%
- Foliar P concentration of bell pepper plants [4]: 0.28%
- Foliar Zn concentration of bell pepper plants [4]: 67 ppm
- Marketable yield, Tomato (Tygress tomato plants [5]): 14.6 b ton/acre
- Marketable yield, Bell Pepper [6]: 7.6 ton/acre
- Nutrient concentrations in tomato fruits, statement (Tygress tomato plants [7]): significant increases in micronutrient concentrations of Zn, Mn, Fe, and Cu; also recorded: highest Mn concentration in the resulting tomato fruit
- B concentration of tomato fruits (Tygress tomato plants [7]; product rate as Table 17): 24 ppm
- Ca concentration of tomato fruits (Tygress tomato plants [7]; product rate as Table 17): 0.2%
- Cu concentration of tomato fruits (Tygress tomato plants [7]; product rate as Table 17): 27 a ppm
- Fe concentration of tomato fruits (Tygress tomato plants [7]; product rate as Table 17): 110 a ppm
- K concentration of tomato fruits (Tygress tomato plants [7]; product rate as Table 17): 8.6%
- Mg concentration of tomato fruits (Tygress tomato plants [7]; product rate as Table 17): 0.39%
- Mn concentration of tomato fruits (Tygress tomato plants [7]; product rate as Table 17): 60 a ppm
- N concentration of tomato fruits (Tygress tomato plants [7]; product rate as Table 17): 4.3%
- P concentration of tomato fruits (Tygress tomato plants [7]; product rate as Table 17): 0.63%
- Zn concentration of tomato fruits (Tygress tomato plants [7]; product rate as Table 17): 939 a ppm
